Values quoted from earlier work as cited in US11318156B2, “Solid injectable veterinary implants comprising monocyclic lactone” (CEVA SANTE ANIMALE, priority 2017, dated 2022).
Where two headings read alike, the source gives them in different places.

Tests used:
[1] = 14-week oral study
[2] = not given; remark: listed apart in the source

For ivermectin, the “No Observable Effect Level (NOEL)” value ([1]; beagle dogs) is given as 0.5 mg/kg bw, the observed effects ([1]; beagle dogs, 1.0 and 2.0 mg/kg bw) is given as “mydriasis and slight weight loss” and the observed effects ([1]; four dogs in the 2.0 mg/kg bw group, killed prior to end of study) is given as “tremors, ataxia, anorexia and dehydration”. The “share of collie dogs highly sensitive to ivermectin” value was “approximately 30%”, the “average increase in plasma levels” value ([2]; four-fold increase in the dose (0.5 to 2.0 mg/kg bw oral)) was “eight-fold” and the “time to steady-state of ivermectin (B1a) in plasma” value ([2]; oral 0.5 and 2.0 mg/kg bw, 36-day study) was “about three weeks”.
